Like-named read-outs stand apart in the source and are kept apart here.

Four compounds from publication PMC11285368, “Chasing Red Herrings: Palladium Metal Salt Impurities Feigning KRAS Activity in Biochemical Assays” (Journal of Medicinal Chemistry, 2024) can be followed below.

Experiment [1] concerns the target T1, KRAS^G12D(GTP)::CRAF (Homo sapiens, UniProt P01116, G12D).
T1 construct: KRAS^G12D 1–169, N-terminal 6His-tag, C-terminal avi-tag (Xtal BioStructures, Inc.); 6His (N); purchased Xtal BioStructures, Inc. (KRAS); Viva Biotech Ltd. (CRAF)
Description: KRAS^G12D(GTP)::CRAF AlphaScreen. The class given is biochemical. The procedure: The proteins have been used at these given final assay concentrations:
Test compounds dissolved in DMSO were dispensed onto assay plates (Proxiplate 384 PLUS, white, PerkinElmer; 6008289) using an Access Labcyte Workstation with the Labcyte Echo 555. For the chosen highest assay concentration of 100 μM, 150 nl of compound solution were transferred from a 10 mM DMSO compound stock solution. A series of 11 5-fold dilutions per compound was transferred to the assay plate, and compound dilutions were tested in duplicates. DMSO was added as backfill to a total volume of 150 nl. The assay was run on a fully automated robotic system in a darkened room below 100 Lux. […] After 60 min incubation time 5 μL of AlphaScreen bead mix in assay buffer were added into columns 1–23. Bead mix consisted of AlphaLISA Glutathione Acceptor Beads (PerkinElmer, cat. no. AL109) and Alpha-Screen Streptavidin Donor Beads (perkinElmer cat. no. 6760002) in assay buffer at a final assay concentration of 10 μg/mL each. Plates were kept at room temperature in a darkened incubator. After an additional 60 min incubation time the signal was measured on a PerkinElmer Envision HTS Multilabel Reader using the AlphaScreen specs from PerkinElmer.
IC50 values were calculated and analyzed with Boehringer Ingelheim’s MEGALAB IC50 application using a 4 parametric logistic model.
Background: Bead proximity is the source of the signal in Alpha formats.

Experiment [2] has as its target biotinylated GST (Schistosoma japonicum, UniProt P08515). The experiment is described as follows: Control assay (AlphaScreen Shortcut). The class given is biochemical. The procedure:
This assay was developed to identify compounds that interfere with the assay format using AlphaLISA Glutathione Acceptor and AlphaScreen Streptavidin Donor beads. The assay was performed as described above using biotinylated GST as bridging reagent instead of KRAS^G12D and CRAF mix.

The target of experiment [3] is KRAS^G12D(GCP) (Homo sapiens, UniProt P01116, G12D). The experiment is described as follows: KRAS STD-NMR. The class given is binding. To be noted: Batch 1; 10 μM KRAS^G12D(GCP), 1000 μM ligand; approximated visually. As to the method:
Experiments were recorded with a saturation time Tsat of 2 s and a total recycle delay of 3.6 s with the standard Bruker pulse program stddiffgp19.2. The shaped pulse train was made of G4 pulses with a length of 50 ms at a power of 31 μW. Here on resonance saturation was applied at 100 Hz and off resonance at 20000 Hz. No spin locking was applied to reduce the protein background. Here, 256 scans were applied with a time domain of 32 000 and the watergate delay was set to 90 μs to reduce remaining HDO signal intensity. 10 μM KRAS^G12D(GCP) and 1000 μM ligand was added for the STD NMR experiments and the percent enhancements approximated visually since no additional analysis was performed.

In experiment [4] the target is KRAS “on” (Homo sapiens, UniProt P01116). The experiment is described as follows: NMR-based fragment screen, KD (NMR). The class given is binding.
[5] abbreviates: Batch 1, read-out: KRAS^G12D(GTP)::CRAF AlphaScreen IC50.
The mark [6] stands for this setting: Batch 2 (resynthesized), read-out: KRAS^G12D(GTP)::CRAF AlphaScreen IC50.
Where [7] appears, read: confirmation screen, read-out: IC50, KRAS^G12D(GTP)::CRAF high-throughput AlphaScreen.
The mark [8] stands for this setting: Control assay IC50, Batch 2 (resynthesized).

Sequence of biotinylated GST (P08515 whole entry): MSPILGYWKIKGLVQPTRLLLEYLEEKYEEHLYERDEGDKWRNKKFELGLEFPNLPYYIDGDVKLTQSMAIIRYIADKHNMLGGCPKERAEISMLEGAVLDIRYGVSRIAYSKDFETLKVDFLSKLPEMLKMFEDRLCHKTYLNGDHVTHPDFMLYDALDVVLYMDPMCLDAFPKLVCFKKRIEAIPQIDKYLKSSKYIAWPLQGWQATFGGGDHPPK

With `O=C1NCCc2c1[nH]c1c(-c3ccoc3)cccc21` [Cmpd 3, 8-(Furan-3-yl)-2H,3H,4H,9H-pyrido[3,4-b]indol-1-one], the IC50 (as a rule, the concentration needed to halve the response being measured) is 11 ± 1.5 µM in experiment [1] (setting [5]); 51.5 ± 3.5 µM in experiment [1] (setting [6]); 78.3 ± 2.9 µM in experiment [1] (Batch 3 (NP repurified), read-out: KRAS^G12D(GTP)::CRAF AlphaScreen IC50); 8.1 µM in experiment [1] (setting [7]); 34 ± 2.6 µM in experiment [2] (Control assay IC50, Batch 1); 69.7 ± 6.7 µM in experiment [2] (setting [8]). The IC50 in experiment [2] (Control assay IC50, Batch 3 (NP repurified)) was greater than 100 µM. Moreover, the “KRAS STD-NMR percent enhancement” value in experiment [3] is given as 11%.
For the compound `O=C1NCCc2c1[nH]c1c(-c3ccncc3)cccc21` [Cmpd 4, 8-(Pyridin-4-yl)-2H,3H,4H,9H-pyrido[3,4-b]indol-1-one], the half-inhibitory concentration (IC50) in experiment [1] (setting [5]) was 8.6 ± 0.8 µM; in experiment [1] (setting [6]), 77.3 ± 55.7 µM; in experiment [1] (setting [7]), 6.3 µM; in experiment [2] (Control assay IC50, Batch 1), greater than 100 µM; in experiment [2] (setting [8]), greater than 100 µM. Besides, the “KRAS STD-NMR percent enhancement” value in experiment [3] is 7%.
With `c1ccc2c(Cc3nc4ccncc4[nH]3)c[nH]c2c1` [FBS Hit 1], the IC50 in experiment [1] (setting [5]) is greater than 100 µM; in experiment [2] (Control assay IC50, Batch 1), greater than 100 µM. The affinity in experiment [4], expressed as Kd, was 1.2 mM.
Consider `Clc1ccc2[nH]c3c(c2c1)CNCC3` [FBS Hit 2], for which the IC50 in experiment [1] (setting [5]) is greater than 100 µM; in experiment [2] (Control assay IC50, Batch 1) it was greater than 100 µM. Besides, in experiment [4], the equilibrium dissociation constant (Kd) – broadly, a measure of binding affinity in units of concentration – was greater than 2 mM.
